“Also recorded” adds a separate entry of the source. Each block holds one substance with its values, some of them ahead of it.
Experiments:
[1] = test system: Barrett's mucosa with high-grade dysplasia; experiment: Confocal fluorescence of frozen sections of targeted biopsies after clinical imaging; assay type: binding; conditions: biopsies after topical administration in human subjects, 400×
Procedure: (§1) Routine histology (H&E) of corresponding images is shown in Panel c and Panel d, magnification 400×.
(§2) No distinct architectural lesions can be appreciated. […] Targeted biopsies were collected from sites suspicious for HGD, non-dysplastic Barrett's esophagus. The specimens were embedded in OCT media, cooled to […], and cut into 10 μm horizontal sections on a cryostat.
(§3) The specimens were then evaluated for fluorescence on a tabletop confocal microscope, and an adjacent section was formalin fixed and stained with H&E for evaluation by two pathologists. […] Routine histology (H&E) of the corresponding images (Panels c and d) from adjacent frozen sections are also shown for purposes of comparison, magnification 400×.

[2] = test system: Barrett's mucosa with no dysplasia; experiment: as above; assay type: binding; conditions: biopsies after topical administration in human subjects, 400×
Procedure: as §1, §2, §3

[3] = test system: esophageal adenocarcinoma within Barrett's esophagus; experiment: In vivo molecular imaging, small animal model (EGJ rat, fluorescence endoscopy); conditions: topical 1 mL 100 μM, 5 min incubation, rinsed
Excerpt: In vivo molecular imaging has been performed in small animal models of esophageal neoplasia to localize binding by targeted peptides. A rigid endoscope for imaging the rat esophagus consists of a 9.5 Fr (3 mm) diameter rigid Hopkins II 0 deg telescope with a 11.5 cm working length (Karl Storz Veterinary Endoscopy, Goleta, Calif.). A 3 Fr (1 mm) diameter instrument channel is available to perform tissue biopsy. Fluorescence excitation light is produced with a 450 to 475 nm passband filter that can be manually placed into the optical path of a xenon (175 W) light source, and is delivered to the endoscope via a light guide. Fluorescence images were collected with 510 nm barrier filter to block the excitation light, and detected with a color CCD camera. The molecular imaging studies were performed in the surgically-altered (EGJ) rats after 36 weeks. The rats were fasted overnight, anesthetized using inhaled isoflurane, and placed in the supine position. The extremities and incisors were restrained to prevent injury to the animal. The endoscope was inserted into the distal esophagus using ˜1 to 2 ml of air injected through an instrument port to dilate the esophageal lumen. The FITC-labeled target peptide was topically administered through the instrument channel onto the distal esophagus in a 1 mL solution diluted in PBS at a concentration of 100 μM. After incubation for 5 minutes, excess peptide was rinsed off with tap water, and binding was evaluated by fluorescence. […] A complete examination usually lasts <2 minutes.

[4] = test system: high-grade dysplasia in Barrett's esophagus; experiment: Clinical imaging (fluorescence endoscopy of distal esophagus); assay type: in vivo; conditions: human, topical ~3 ml 10 μM
Excerpt: Endoscopic images collected in vivo of distal esophagus in human subject with Barrett's esophagus and high grade dysplasia on white-light endoscopy (Panel a) and fluorescence imaging (Panel b).
A prototype endoscope was used to collect fluorescence images of peptide binding from human subjects with Barrett's esophagus and high-grade dysplasia using the target peptide labeled with FITC. With IRB approval and informed consent, human subjects with a history of Barrett's esophagus and biopsy proven high-grade dysplasia scheduled for endoscopic mucosal resection were recruited into the study. After esophageal intubation, a 10 second video was collected in the white light mode. Then, ˜3 ml of peptide at a concentration of 10 μM was administered topically to the distal esophagus using a mist spray catheter. After 5 minutes for incubation, excess peptide was gently rinsed off with water, and another 10 second video was collected of the peptide targeted fluorescence image. The mucosa of the distal esophagus was then removed by endoscopic mucosal resection. Each video stream was exported into individual frames.
as §2

GIL hTERT(HGD) cells = experiment: Peptide binding on cell lines; conditions: FITC-conjugated peptide
Procedure: (§4) Blocking of non-specific binding to these cells was performed by adding 200 μL of 1% BSA diluted in PBS for 30 min. The cells were then incubated with 100 μmol of the targeted FITC conjugated peptide in serum free media for 15 min in room temperature. The scrambled peptide had been used as control. Wash cells 3-time use 200 μL PBS/0.5% TWEEN 20 in room temperature. Cell were fixed by ice cold Acetone 90 second. Then mounted by Vectashield mounting medium with DAPI. Fluorescence images were collected with a confocal microscope (Nikon 1000) at 200×. The fluorescence intensity from the cells in 3 images were averaged to assess peptide binding.

TE7 cells = experiment: Peptide binding on cell lines; conditions: FITC-conjugated peptide
Procedure: as §4

Seg-1 cells = experiment: Peptide binding on cell lines; conditions: 100 μmol FITC-conjugated peptide, 15 min room temperature
Procedure: (§5) FITC-conjugated peptide (100 μmol) was incubated with Segl (Panel a), OE21 (Panel c), QhTERT (Panel d) cells. Peptide binding were found in plasma membrane of >90% of Seg1 cells (Panel a).
(§6) 3×10^4-5×10^4 Seg-1, OE21, QhTERT cells were grown in chamber slides.
as §4

[5] = test system: Seg-1 cells (esophageal adenocarcinoma); experiment: Phage binding assay (cell binding of phage clones relative to insertless phage); conditions: Seg-1 vs QhTERT, p<0.01
Procedure: Individual phage clones (2×10^11 pfu) were incubated at room temperature for 30 min with Segl and Q-hTERT cells. The columns represent the mean of measurements from three wells and the bars represent the standard deviation (SD). P-values for each group were calculated using student's t test.
According to the sequencing results some peptide sequence expressed on more than one phage clones. These phage clones had been amplified respectively for the binding assay. Seg-1 cell and Q-hTERT cell (None dysplasia Barrett's cell line) were growth in 6 well plate. 2×10^11 pfu each single clone phage were incubated with both cell in triple wells. Wild-type (no insert) phage (M13KE, New England Biolabs, Beverly, Mass.) was used as control. The incubation, two-step elution and tittering were done as mentioned above. […] Fold binding of each phage relative to none insert phage was measured. Different binding of each phage clone on Seg-1 and QhTERT were calculated using student's t test.

Seg1 cells = experiment: Competitive inhibition assay; assay type: binding; conditions: unconjugated peptide 100, 500, 1000 μmol (5 or 10 times higher concentration) 15 min prior to FITC-conjugated peptide, P<0.01
Procedure: Unconjugated peptide was incubated with Seg1 cells 15 min prior to adding of FITC-conjugated peptide in three different concentrations. […] Error bars represent mean±s.e.m. for 3 images. *P<0.01.
Competitive inhibition of targeted peptide binding was evaluated by incubating the cells in culture with unconjugated (no FITC) peptide at concentrations of 100, 500, and 1000 μmol. Three fluorescence images were collected at 200× from each well of the chamber slide using the same gain and exposure time. Images selected for analysis met the following criteria: 1) 70-90% cell confluence, 2) away from the edge of each well, 3) low background binding on cell free area of slide, 4) No change in cellular morphology. The mean cell numbers under three 200× view were record to calculate the percentage of peptide binding cells. Quantification of the fluorescence intensities was done by NIH Image J software to calculate pixel value between each group under the same threshold. Differences in the mean fluorescence intensities were compared using a student's t test.

[6] = test system: Barrett's with high-grade dysplasia (HGD) tissue; experiment: Targeted peptide binding on esophageal mucosa (human tissue specimens)
Procedure: (§7) Specimens were incubated with 100 μmol FITC-conjugated peptide in PBS (Panels a, b, c, d). Hematoxylin and eosin staining (Panels e, f, g, h) was performed on adjacent sections to show the pathology diagnosis. In HGD tissue the binding site is a group of consecutive cells located in the lining of esophageal. In normal Barrett's mucosa the binding site is sporadic separated cells in some area of mucosa.
(§8) IRB approval was granted by the Stanford University Medical Center, the VA Palo Alto Health Care Systems, and El Camino Hospital. Human subjects with a history of Barrett's esophagus undergoing routine screening endoscopy were recruited for this study and informed consent was obtained. Subjects with coagulation abnormalities, or low tolerance for endoscopy were excluded from the study. Tissue specimens were collected using standard pinch biopsy from regions of endoscopically apparent Barrett's and squamous esophagus and duodenum mucosa. Histopathology was evaluated by two gastrointestinal pathologists in a blinded fashion according to common criteria (Goldblum, Mod Pathol 2003;16:316-24).
(§9) The tissue specimens were placed immediately after excision in an Eppendorf tube containin PBS at 4° C. PBS and incubated with100 μmol of targeted peptide ‘ASYNYDA’ for 15 minutes at room temperature. After being washed three times with PBS at 4° C., the specimens were embedded in OCT freezing compound (Sakura finetek USA), cut in 6 μm sections, and placed onto Poly-D-lysine coated slides. The tissue specimens were fixed in acetone at 4° C. for 90 seconds, counterstained with DAPI, and mounted in Vectashield. An adjacent serial section of the specimen was cut and stained with H&E for routine histology and comparison.
(§10) For each specimen 10 serial section were screened under microscope. Three highest intensity fluorescence images were collected at 400× using the same gain and exposure time. Fluorescence intensities of images were quantified by NIH Image J software to calculate pixel value between each sample under the same threshold (40, 255). Differences in the mean fluorescence intensities between four tissue types were compared using a student's t test.

[7] = test system: normal (non-dysplastic) Barrett's tissue; experiment: as above; conditions: 100 μmol FITC-conjugated peptide in PBS, 15 min, fresh biopsy
Procedure: as §7, §8, §9, §10

[8] = test system: adjacent normal esophageal mucosa; experiment: as above; conditions: 100 μmol FITC-conjugated peptide in PBS, 15 min, fresh biopsy
Procedure: as §7, §8, §9, §10

duodenal mucosa = experiment: as above; conditions: 100 μmol FITC-conjugated peptide in PBS, 15 min, fresh biopsy
Procedure: as §7, §8, §9, §10

[9] = test system: OE21 cells (squamous esophagus carcinoma); experiment: Peptide binding on cell lines; conditions: 100 μmol FITC-conjugated peptide, 15 min room temperature
Procedure: as §5, §6, §4

[10] = test system: QhTERT (normal Barrett's) cells; experiment: Peptide binding on cell lines; conditions: 100 μmol FITC-conjugated peptide, 15 min room temperature
Procedure: as §5, §6, §4

binding to Barrett's mucosa with high-grade dysplasia (frozen section) ([1]; listed as FITC-labeled peptide): significant binding
binding to Barrett's mucosa with high-grade dysplasia (frozen section) ([1]; listed as target peptide): Significant binding
binding to Barrett's mucosa with no dysplasia (frozen section) [2]: minimal binding
Substance: ASYNYDA-GGGSK-FITC [Peptide 17-FITC]
average target-to-background ratio [3]: 5±2
fluorescence at site of lesion after topical peptide ([3]; listed as FITC-labeled target peptide): Increased fluorescence intensity was observed at the site of the lesion
fluorescence at site of lesion after topical peptide ([3]; listed as target peptide): increased fluorescence intensity at the site of the lesion
fluorescence at site of lesion after topical peptide ([4]; 5 min incubation, rinsed, listed as FITC-labeled target peptide): increased fluorescence intensity at a site; also recorded: increased fluorescence intensity at the site of the lesion
target-to-background ratio (HGD vs non-dysplastic Barrett's metaplasia) ([4]; mean fluorescence of 5 independent regions): 1.52
percentage of GIL hTERT(HGD) cells with peptide binding on cytoplasm (GIL hTERT(HGD) cells): 1%
percentage of TE7 cells with peptide binding on cytoplasm (TE7 cells): 37%
percentage of Seg-1 cells with peptide binding on plasma membrane (Seg-1 cells): > 90%

peptide binding to Barrett's with high-grade dysplasia tissue ([6]; 100 μmol FITC-conjugated peptide in PBS, 15 min, fresh biopsy): bound
peptide binding to normal Barrett's tissue [7]: bound
peptide binding to adjacent normal esophageal mucosa [8]: did not bind
peptide binding to duodenal mucosa (duodenal mucosa): did not bind
Substance: ASYNYDA
fluorescence intensity with Seg-1 than with QhTERT cells [5]: 5 times
inhibition of FITC-conjugated peptide binding to Seg1 cells by unconjugated peptide (Seg1 cells): can be inhibited
inhibition of FITC-conjugated peptide binding to Seg1 cells by unconjugated peptide (Seg1 cells; listed as unconjugated peptide 17): could be inhibited
quantization of peptide binding (fluorescence intensity, NIH Image J), HGD vs other tissues ([6]; HGD vs Barrett's, duodenal and normal esophageal mucosa, P<0.01): higher preferential bind on HGD than other tissues
peptide binding to OE21 cells [9]: didn't binding
peptide binding to QhTERT cells [10]: didn't binding

Substance: YANSAYD [scrambled peptide-FITC]
peptide binding to Seg-1 cells (Seg-1 cells): did not bind on any cells
peptide binding to Seg-1 cells (Seg-1 cells; listed as Scrambled FITC-conjugated peptide): no binding

From US8247529B2, “Neoplasia targeting peptides and methods of using the same” (The Board of Trustees of the Leland Stanford Junior …, priority 2008, dated 2012)
